According to patent US10695334B2, “Heteroaromatic carboxamide derivatives as plasma kallikrein inhibitors” (Boehringer Ingelheim International GmbH, priority 2018, dated 2020):

Experiments:
Format in all cases: biochemical
[1] = biological target: T1, Human PKK (Homo sapiens (Human), UniProt P03952); experiment: Inhibition of PKK, endpoint assay (human PKK); conditions: substrate H-Pro-Phe-Arg-AMC, 1 h room temperature
Experimental: Subsequently, PPACK II (Calbiochem) was added as a stop solution to achieve a final concentration of 1 μM and fluorescence was measured using an Envision Reader (PerkinElmer) with the wavelength excitation setting of 355 nm and the wavelength emission setting of 460 nm.

[2] = biological target: T1, Human PKK; experiment: Inhibition of PKK (Ki), kinetic assay; conditions: 24° C., IC50 corrected for KM
Experimental: Measurements were performed in a kinetic interval every 2nd minute for 16 min using a Spectramax M5 (Molecular Devices) with the following settings of the wavelength excitation of 350 nm and wavelength emission of 450 nm. The number of the compound corresponds to the number of the Example in the experimental section.
The pIC50 values were then fitted using a four-parametric fitting procedure using GraphPad Prism (version 6; GraphPad Software, Inc.).
(§1) Where the IC50 is in molar and the KM value in mM.

[3] = biological target: human TK1 (Homo sapiens (Human), UniProt P06870); experiment: Inhibition of TK1 (Ki); conditions: column head prints IC50, text above the table says Ki values
Experimental: The ability of compounds of formula (I) to inhibit plasma kallikrein (PKK), Factor Xlla (FXIIa), Factor Xla (FXIa), Factor Xa (FXa), Factor Ila (alpha-thrombin; FIIa), plasmin, trypsin, tissue kallikrein 1 (TK1), Factor VIIa (FVIIa), or FVIIa complexed with Tissue Factor, phospholipids and CaCl2 (FVIIa/TF/PL/CaCl2) was determined using the following biochemical assays in assay buffer (100 mM Tris, 150 mM NaCL, adjusted to a pH of 7.8 with HCl, and containing 0.1% (w/v) BSA and 0.05% (v/v) Tween20) in the presence of 1% (v/v) DMSO: EVALUATION OF THE INHIBITION OF PKK USING AN ENDPOINT ASSAY Human PKK (0.01 U/mL; Enzyme Research Laboratories) or rat PKK (0.625 nM; produced in-house) was incubated for 1 h at room temperature with 0.10 μM fluorogenic substrate H-Pro-Phe-Arg-AMC (11295 from Bachem) and various concentrations of the test compound in assay buffer. Subsequently, PPACK II (Calbiochem) was added as a stop solution to achieve a final concentration of 1 μM and fluorescence was measured using an Envision Reader (PerkinElmer) with the wavelength excitation setting of 355 nm and the wavelength emission setting of 460 nm.
Prior to the assay, human TK1 (R&D Systems) was activated by incubation with human trypsin (Calbiochem) in a 1:10,000 ratio for 15 min at 37° C. For assaying TK1 inhibitory activity, activated TK1 (31.25 nM or 1 U/mL) was incubated at 24° C. with 0.1 mM fluorogenic substrate H-Pro-Phe-Arg-AMC (11295 from Bachem) and various concentrations of the test compound in assay buffer. Measurements were performed in a kinetic interval every 2nd minute for 16 min using a Spectramax M5 (Molecular Devices) with the following settings of the wavelength excitation of 350 nm and wavelength emission of 450 nm.
The average Vmax values for the time interval from 2 to 12 min after initiation of the assay (expressed as either delta OD/min for assays using a chromogenic substrate or delta RFU/min for assays using a fluorigenic substrate, respectively) were plotted versus the Log of the concentration in molar of the evaluated inhibitor compound. The pIC50 values were then fitted using a four-parametric fitting procedure using GraphPad Prism (version 6; GraphPad Software, Inc.). Respective Ki values were obtained by correction of the IC50 values for the respective KM value of the used substrate (see Table A for the obtained KM values of the used substrates) using the following formula: […]
as §1

T1 sequence (P03952 391-638): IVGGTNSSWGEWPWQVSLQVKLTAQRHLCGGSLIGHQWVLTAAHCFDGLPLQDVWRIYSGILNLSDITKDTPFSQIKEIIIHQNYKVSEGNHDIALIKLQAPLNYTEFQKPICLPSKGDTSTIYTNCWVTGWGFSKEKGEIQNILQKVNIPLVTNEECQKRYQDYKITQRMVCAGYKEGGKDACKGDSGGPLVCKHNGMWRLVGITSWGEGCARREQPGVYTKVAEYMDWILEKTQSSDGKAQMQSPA
T1 sequence (P03952 20-390 partner): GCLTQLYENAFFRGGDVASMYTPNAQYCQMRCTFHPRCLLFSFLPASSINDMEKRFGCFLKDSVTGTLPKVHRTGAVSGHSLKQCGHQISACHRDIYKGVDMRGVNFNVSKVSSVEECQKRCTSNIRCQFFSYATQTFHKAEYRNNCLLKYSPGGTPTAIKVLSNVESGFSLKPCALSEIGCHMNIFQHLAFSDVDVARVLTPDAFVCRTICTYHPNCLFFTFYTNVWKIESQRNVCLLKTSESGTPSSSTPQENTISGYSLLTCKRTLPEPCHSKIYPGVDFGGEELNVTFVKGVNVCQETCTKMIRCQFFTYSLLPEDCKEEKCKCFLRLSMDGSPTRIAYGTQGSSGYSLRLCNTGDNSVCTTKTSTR
Chain of human TK1 (P06870 25-262): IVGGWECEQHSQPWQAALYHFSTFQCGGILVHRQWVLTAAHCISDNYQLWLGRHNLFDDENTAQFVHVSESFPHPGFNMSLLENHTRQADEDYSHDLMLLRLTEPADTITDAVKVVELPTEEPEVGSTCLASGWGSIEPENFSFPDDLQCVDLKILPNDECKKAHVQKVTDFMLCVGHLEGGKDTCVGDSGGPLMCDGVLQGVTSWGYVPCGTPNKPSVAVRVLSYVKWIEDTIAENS

Row | SMILES | IC50 [1] | Ki [2] | IC50 [3]
1 | Cc1nc(N2CC3CC3C2)ccc1Cn1cc(C(=O)N[C@@H]2CCc3c(C)n[nH]c32)c(C)n1 (stereo partly drawn) [Example 19, 1-[(6-{3-Azabicyclo[3.1.0]hexan-3-yl}-2-methyl-pyridin-3-yl)methyl]-3-methyl-N-[(6R)-3-methyl-1H,4H,5H,6H-cyclopenta[c]pyrazol-6-yl]-1H-pyrazole-4-carboxamide] | 1 nM | 0.3 nM | > 10000 nM
2 | Cc1nc(N2CC3CC3C2)ccc1Cn1cc(C(=O)N[C@@H]2CCc3c(C)n[nH]c32)nn1 (stereo partly drawn) [Example 86, 1-[(6-{3-Azabicyclo[3.1.0]hexan-3-yl}-2-methylpyridin-3-yl)methyl]-N-[(6R)-3-methyl-1H,4H,5H,6H-cyclopenta[c]pyrazol-6-yl]-1H-1,2,3-triazole-4-carboxamide] | 0.4 nM | – | > 10000 nM
3 | COCc1nn(Cc2ccc(N3CC4C(C3)C4(F)F)nc2C)cc1C(=O)N[C@@H]1CCc2c(C)n[nH]c21 (stereo partly drawn) [Example 15, 1-[(6-{6,6-Difluoro-3-azabicyclo[3.1.0]hexan-3-yl}-2-methylpyridin-3-yl)methyl]-3-(methoxymethyl)-N-[(6R)-3-methyl-1H,4H,5H,6H-cyclopenta[c]-pyrazol-6-yl]-1H-pyrazole-4-carboxamide] | 0.8 nM | 0.1 nM | > 10000 nM
4 | Cc1nc(N2CCC3CC3C2)ccc1Cn1cc(C(=O)N[C@@H]2CCc3c2n[nH]c3C)cn1 (stereo partly drawn) [Example 48, 1-[(6-{3-Azabicyclo[4.1.0]heptan-3-yl}-2-methylpyridin-3-yl)methyl]-N-[(6R)-3-methyl-2H,4H,5H,6H-cyclopenta[c]pyrazol-6-yl]-1H-pyrazole-4-carboxamide] | 5 nM | – | > 10000 nM
5 | COc1nn(Cc2ccc(N3CC4CC4C3)nc2C)cc1C(=O)N[C@@H]1CCc2c(C)n[nH]c21 (stereo partly drawn) [Example 20, 1-[(6-{3-Azabicyclo[3.1.0]hexan-3-yl}-2-methyl-pyridin-3-yl)methyl]-3-methoxy-N-[(6R)-3-methyl-1H,4H,5H,6H-cyclopenta[c]pyrazol-6-yl]-1H-pyrazole-4-carboxamide] | 1 nM | 0.2 nM | > 10000 nM
6 | Cc1nc(N2CC3(CC3)C2)ccc1Cn1cnc(C(=O)N[C@@H]2CCc3c(C)n[nH]c32)c1 [Example 88, 1-[(6-{5-Azaspiro[2.3]hexan-5-yl}-2-methylpyridin-3-yl)methyl]-N-[(6R)-3-methyl-2H,4H,5H,6H-cyclo-penta[c]pyrazol-6-yl]-1H-imidazole-4-carboxamide] | 1 nM | – | > 10000 nM
7 | Cc1nc(N2C[C@@H]3[C@@H](CO)[C@@H]3C2)ccc1Cn1cc(C(=O)N[C@@H]2CCc3c(C)n[nH]c32)cn1 [Example 94, 1-({6-[(1R,5S,6R)-6-(hydroxymethyl)-3-azabicyclo[3.1.0]hexan-3-yl]-2-methylpyridin-3-yl}methyl)-N-[(6R)-3-methyl-1H,4H,5H,6H-cyclopenta[c]pyrazol-6-yl]-1H-pyrazole-4-carboxamide] | 2 nM | – | > 10000 nM
8 | Cc1nc(N2CC3C(C2)C3(F)F)ccc1Cn1cnc(C(=O)N[C@@H]2CCc3c2n[nH]c3C)c1 (stereo partly drawn) [Example 89, 1-[(6-{6,6-Difluoro-3-azabicyclo[3.1.0]hexan-3-yl}-2-methylpyridin-3-yl)methyl]-N-[(6R)-3-methyl-2H,4H,5H,6H-cyclopenta[c]pyrazol-6-yl]-1H-imidazole-4-carboxamide] | 0.6 nM | – | > 10000 nM
9 | Cc1nc(N2CC3C(C2)C3(F)F)ncc1Cn1cnc(C(=O)N[C@@H]2CCc3c2n[nH]c3C)c1 (stereo partly drawn) [Example 92, 1-[(2-{6,6-Difluoro-3-azabicyclo[3.1.0]hexan-3-yl}-4-methylpyrimidin-5-yl)methyl]-N-[(6R)-3-methyl-2H,4H,5H,6H-cyclopenta[c]pyrazol-6-yl]-1H-imidazole-4-carboxamide] | 1 nM | – | > 10000 nM
10 | Cc1nc(N2CC3(CC3)C2)ncc1Cn1cc(C(=O)N[C@@H]2CCc3c(C)n[nH]c32)c2cncnc21 [Example 33, 7-[(2-{5-Azaspiro[2.3]hexan-5-yl}-4-methyl-pyrimidin-5-yl)methyl]-N-[(6R)-3-methyl-1H,4H,5H,6H-cyclopenta[c]pyrazol-6-yl]-7H-pyrrolo[2,3-d]pyrimidine-5-carboxamide] | 3 nM | – | > 10000 nM
11 | Cc1nc(N2C[C@@H]3[C@@H](C)[C@@H]3C2)ccc1Cn1cc(C(=O)N[C@@H]2CCc3c2n[nH]c3C)cn1 [Example 79, N-[(6R)-3-Methyl-2H,4H,5H,6H-cyclopenta[c]pyrazol-6-yl]-1-({2-methyl-6-[(1R,5S,6R)-6-methyl-3-azabicyclo[3.1.0]hexan-3-yl]pyridin-3-yl}methyl)-1H-pyrazole-4-carboxamide] | 4 nM | – | > 10000 nM
12 | Cc1nc(N2CC3CC3C2)ccc1Cn1cnc(C(=O)N[C@@H]2CCc3c2n[nH]c3C)c1 (stereo partly drawn) [Example 90, 1-[(6-{3-Azabicyclo[3.1.0]hexan-3-yl}-2-methyl-pyridin-3-yl)methyl]-N-[(6R)-3-methyl-2H,4H,5H,6H-cyclopenta[c]pyrazol-6-yl]-1H-imidazole-4-carboxamide] | 0.8 nM | – | > 10000 nM
13 | Cc1nc(N2CC3(CC3)C2)ncc1Cn1cnc(C(=O)N[C@@H]2CCc3c(C)n[nH]c32)c1 [Example 93, 1-[(2-{5-Azaspiro[2.3]hexan-5-yl}-4-methyl-pyrimidin-5-yl)methyl]-N-[(6R)-3-methyl-2H,4H,5H,6H-cyclopenta[c]pyrazol-6-yl]-1H-imidazole-4-carboxamide] | 4 nM | – | > 10000 nM
14 | Cc1nc(N2CC3CC3C2C)ccc1Cn1cc(C(=O)N[C@@H]2CCc3c2n[nH]c3C)cn1 (stereo partly drawn) [Example 82, N-[(6R)-3-Methyl-2H,4H,5H,6H-cyclopenta[c]pyrazol-6-yl]-1-[(2-methyl-6-{2-methyl-3-azabicyclo[3.1.0]hexan-3-yl}pyridin-3-yl)methyl]-1H-pyrazole-4-carboxamide] | 2 nM | – | > 10000 nM
15 | Cc1nc(N2CCC3(CC3)C2)ccc1Cn1cc(C(=O)N[C@@H]2CCc3c2n[nH]c3C)cn1 [Example 45, 1-[(6-{5-Azaspiro[2.4]heptan-5-yl]-2-methylpyridin-3-yl)methyl]-N-[(6R)-3-methyl-2H,4H,5H,6H-cyclopenta[c]pyrazol-6-yl]-1H-pyrazole-4-carboxamide] | 4 nM | – | > 10000 nM
16 | Cc1nc(N2CC3CC3C2)ncc1Cn1cc(C(=O)N[C@@H]2CCc3c(C)n[nH]c32)c(C)n1 (stereo partly drawn) [Example 25, 1-[(2-{3-Azabicyclo[3.1.0]hexan-3-yl}-4-methyl-pyrimidin-5-yl)methyl]-3-methyl-N-[(6R)-3-methyl-1H,4H,5H,6H-cyclopenta[c]pyrazol-6-yl]-1H-pyrazole-4-carboxamide] | 3 nM | – | > 10000 nM
17 | Cc1nc(N2CC3CC3C2)ccc1Cc1ccc(C(=O)N[C@@H]2CCc3c(C)n[nH]c32)[nH]1 (stereo partly drawn) [Example 109, 5-[(6-{3-Azabicyclo[3.1.0]hexan-3-yl}-2-methylpyridin-3-yl)methyl]-N-[(6R)-3-methyl-1H,4H,5H,6H-cyclopenta[c]pyrazol-6-yl]-1H-pyrrole-2-carboxamide] | 3 nM | – | > 10000 nM
18 | Cc1nc(N2C[C@@H]3CNC(=O)[C@@H]3C2)ccc1Cn1cc(C(=O)N[C@@H]2CCc3c2n[nH]c3C)cn1 [Example 50, 1-({6-[(3aS,6aS)-4-Oxo-octahydropyrrolo[3,4-c]pyrrol-2-yl]-2-methylpyridin-3-yl}methyl)-N-[(6R)-3-methyl-2H,4H,5H,6H-cyclopenta[c]pyrazol-6-yl]-1H-pyrazole-4-carboxamide] | 8 nM | – | –
